The record followed here is ChEMBL document CHEMBL1201862, “PubChem BioAssay data set” (2004).

Test systems include 786-0; ACHN; CAKI-1; HCC 2998; HOP-62; HOP-92; OVCAR-8; RXF 393; SF-268; SK-MEL-2; SK-OV-3; SN12C; SNB-75; SW-620; UACC-257; Hs-578T; MDA-MB-435; PC-3; T47D.
Common to all, as to experiment: NCI-60 cell line screen, 48 h

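Briefly, cells in 96-well plates were exposed to five compound concentrations for 48 h, and endpoints were estimated by linear interpolation. Abbreviation: GI50, concentration required for 50% inhibition of growth.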 Activity calls are given as the source filed them. Rule as the data show it: active = GI50 up to about 1.1 µM and inactive = higher.

Turning to `O=S(=O)(O)C(F)(F)C(F)(F)C(F)(F)C(F)(F)F`, the GI50 was > 100 µM (inactive) in the assay on 786-0; > 100 µM (inactive) with ACHN; > 100 µM (inactive) in the assay on CAKI-1; > 100 µM (inactive) with HCC 2998; > 100 µM (inactive) with HOP-62; 9.51 µM (inactive) in the assay with HOP-92. The GI50 in the assay on OVCAR-8, in the assay on RXF 393, with SF-268, in the assay with SK-MEL-2, in the assay with SK-OV-3 and in the assay on SN12C was > 100 µM (inactive) each time. For the same compound, the GI50 in the assay with SNB-75, in the assay with SW-620 and in the assay on UACC-257 was > 100 µM (inactive) each time.

On to `CC(C)C(=S)N(C)O`, for which the GI50 was 18.3 µM (inactive) in the assay with 786-0; 31 µM (inactive) with ACHN; 19.9 µM (inactive) in the assay with CAKI-1; 40.2 µM (inactive) in the assay with HCC 2998; 24.5 µM (inactive) in the assay on HOP-62; 47.8 µM (inactive) in the assay with HOP-92. Also, the GI50 with OVCAR-8 is 13.9 µM (inactive); in the assay on RXF 393, 98.9 µM (inactive); with SF-268 it was 27.6 µM (inactive); with SK-MEL-2 it was 24.5 µM (inactive); in the assay on SK-OV-3, 55.3 µM (inactive); with SN12C it was 26.6 µM (inactive). For the same compound, the GI50 with SNB-75 is 22.4 µM (inactive); in the assay with SW-620, 1.52 µM (inactive); with UACC-257, 29.1 µM (inactive).

`CCOC(=O)C[C@@H](C)[C@]1(C(=O)OC)CCCC1=O`: the GI50 in the assay with 786-0 was > 70.6 µM (inactive); with ACHN, > 100 µM (inactive); in the assay on CAKI-1 it was > 100 µM (inactive); with HCC 2998, > 100 µM (inactive); with HOP-62, > 100 µM (inactive); in the assay with HOP-92 it was > 100 µM (inactive). The GI50 was > 100 µM (inactive) in the assay on OVCAR-8; > 100 µM (inactive) with RXF 393; > 90.8 µM (inactive) in the assay on SF-268; > 100 µM (inactive) in the assay with SK-MEL-2; > 100 µM (inactive) in the assay on SK-OV-3; > 100 µM (inactive) in the assay with SN12C. The GI50 in the assay with SNB-75, in the assay with SW-620 and in the assay on UACC-257 was > 100 µM (inactive) throughout.

Consider `CC(=O)OC1COC(Nc2ccc(C(C)=O)cc2)C(OC(C)=O)C1OC(C)=O` (stereo unspecified), for which the GI50 with 786-0, in the assay on ACHN, in the assay with CAKI-1, in the assay with HCC 2998, in the assay on HOP-62 and in the assay with HOP-92 was > 100 µM (inactive) each time. In addition, the GI50 in the assay with OVCAR-8, in the assay on RXF 393, in the assay with SF-268, with SK-MEL-2, in the assay on SK-OV-3 and in the assay on SN12C was > 100 µM (inactive) in each case. For the same compound, the GI50 with SNB-75, with SW-620 and in the assay with UACC-257 was > 100 µM (inactive) throughout.

As for `COC(=S)OC1CC(n2cnc3c(=O)[nH]cnc32)OC1CO[Si](C)(C)C(C)(C)C` (stereo unspecified), the GI50 in the assay with 786-0, with ACHN, with CAKI-1, in the assay with HOP-62, with HOP-92 and in the assay with Hs-578T was > 100 µM (inactive) each time. For the same compound, the GI50 in the assay with MDA-MB-435, with OVCAR-8, in the assay on PC-3, with RXF 393, with SF-268 and with SK-MEL-2 was > 100 µM (inactive) throughout. In addition, the GI50 in the assay with SK-OV-3, in the assay on SN12C, in the assay on SNB-75, in the assay on SW-620 and in the assay with UACC-257 was > 100 µM (inactive) in each case.

`CCOC(=O)C1=C(OC(OCC)C(CC)[Se]c2ccccc2)CCCC1` (stereo unspecified): the GI50 was 15.6 µM (inactive) with 786-0; 28.1 µM (inactive) with ACHN; 37.3 µM (inactive) in the assay on CAKI-1; 13.4 µM (inactive) in the assay on HCC 2998; 54.2 µM (inactive) in the assay with HOP-62; 21.2 µM (inactive) in the assay with HOP-92. For the same compound, the GI50 in the assay on OVCAR-8 is 19.1 µM (inactive); with RXF 393, 20.5 µM (inactive); with SF-268, 19 µM (inactive); with SK-MEL-2, 8.32 µM (inactive); with SK-OV-3, > 100 µM (inactive); in the assay with SN12C, 14.6 µM (inactive). Also, the GI50 is 16.9 µM (inactive) with SNB-75 and 35 µM (inactive) with UACC-257.

`Cn1c(=O)c2[nH]c(Nc3cccc(Cl)c3)nc2n(C)c1=O`: the GI50 was 4.4 µM (inactive) in the assay with 786-0; 4.75 µM (inactive) in the assay with CAKI-1; 4.27 µM (inactive) in the assay with HCC 2998; 4.67 µM (inactive) in the assay on HOP-62; 2.78 µM (inactive) in the assay on HOP-92; 3.82 µM (inactive) with MDA-MB-435. Moreover, the GI50 in the assay with OVCAR-8 is 6.17 µM (inactive); with PC-3 it was 4.11 µM (inactive); in the assay with RXF 393, 2.05 µM (inactive); in the assay with SF-268 it was 6.98 µM (inactive); in the assay on SK-OV-3, 6.17 µM (inactive); with SN12C, 5.77 µM (inactive). For the same compound, the GI50 in the assay with SNB-75 was 4.86 µM (inactive); with SW-620 it was 5.78 µM (inactive); in the assay with T47D, 2.86 µM (inactive); in the assay on UACC-257, 4.18 µM (inactive).

For `COc1cc(/C=C2\[C@H]3c4c(c(OC)c(C)c(OC)c4OC)CC(C(=O)N2Cc2ccccc2)N3C)c(OC)c(C)c1OC`, the GI50 with 786-0 was 18.1 µM (inactive); in the assay on ACHN, 26.1 µM (inactive); in the assay on CAKI-1, 30.3 µM (inactive); in the assay with HCC 2998 it was 21.7 µM (inactive); with HOP-62, 19.5 µM (inactive); in the assay on HOP-92 it was 19.9 µM (inactive). The GI50 in the assay with OVCAR-8 is 38.5 µM (inactive); with RXF 393 it was > 100 µM (inactive); in the assay with SF-268, 27.2 µM (inactive); in the assay on SK-MEL-2, > 10 µM (inactive); in the assay on SK-OV-3 it was 29.5 µM (inactive); in the assay with SN12C, 17.9 µM (inactive). Also, the GI50 with SNB-75 is 25.4 µM (inactive); with SW-620, 22.2 µM (inactive); in the assay on UACC-257, 21 µM (inactive).

Take `C=C(C=O)CCCC(C)[C@@H]1CCC23CC12CCC1[C@@]2(C)CCC(OC(C)=O)C(C)(C)C2CC(OC2OC(COC(C)=O)C(O)C(O)C2O)[C@]13C` (stereo partly specified): the GI50 was 6.87 µM (inactive) in the assay on 786-0; 4.51 µM (inactive) in the assay on ACHN; 5.25 µM (inactive) with CAKI-1; 7.53 µM (inactive) with HCC 2998; 7.87 µM (inactive) in the assay with HOP-62; 6.22 µM (inactive) with HOP-92. The GI50 in the assay with OVCAR-8 was 4.38 µM (inactive); in the assay with RXF 393, 5.6 µM (inactive); in the assay with SF-268, 5.43 µM (inactive); with SK-MEL-2 it was 7.4 µM (inactive); in the assay on SK-OV-3, 6.15 µM (inactive); with SN12C, 1.58 µM (inactive). The GI50 in the assay with SNB-75 is 5.68 µM (inactive); in the assay with SW-620 it was 0.798 µM (active); with UACC-257 it was 5.7 µM (inactive).

With `CC1(C)CCC[C@]2(C)[C@H]3[C@H](C#N)c4cc(O)c(O)cc4O[C@@]3(C)CC[C@@H]12`, the GI50 with 786-0, in the assay with ACHN, with CAKI-1, in the assay with HCC 2998, with HOP-62 and with HOP-92 was > 10 µM (inactive) throughout. Moreover, the GI50 in the assay on Hs-578T, in the assay on OVCAR-8, in the assay on PC-3, in the assay on RXF 393, with SF-268 and in the assay with SK-MEL-2 was > 10 µM (inactive) in each case. Besides, the GI50 with SK-OV-3, with SN12C, with SW-620 and in the assay on UACC-257 was > 10 µM (inactive) in each case.

For `COC(=O)[C@@H]1C(=O)O[C@@H](c2ccc(OC)c(OC)c2OC)[C@@H]1C(=O)OC.COC(=O)[C@H]1C(=O)O[C@@H](c2ccc(OC)c(OC)c2OC)[C@@H]1C(=O)OC`, the GI50 in the assay on 786-0, with ACHN, in the assay with CAKI-1, in the assay on HCC 2998, in the assay with HOP-62 and in the assay with HOP-92 was > 100 µM (inactive) throughout. Besides, the GI50 in the assay on OVCAR-8, in the assay on RXF 393, in the assay with SF-268, in the assay with SK-OV-3, in the assay on SN12C and with SNB-75 was > 100 µM (inactive) in each case. In addition, the GI50 in the assay on SW-620 and with UACC-257 was > 100 µM (inactive) each time.

Regarding `CCCCCCCC[N+](C)(C)Cc1ccc(C[N+](C)(C)CCCCCCCC)cc1`, the GI50 in the assay on 786-0 is > 100 µM (inactive); with ACHN it was > 100 µM (inactive); in the assay with CAKI-1, 45.4 µM (inactive); with HCC 2998, 31.5 µM (inactive); with HOP-62, 4.11 µM (inactive); in the assay with HOP-92, 32.7 µM (inactive). Also, the GI50 in the assay with OVCAR-8 is 15.6 µM (inactive); with RXF 393, 78.7 µM (inactive); with SF-268, > 100 µM (inactive); in the assay on SK-MEL-2, 14.9 µM (inactive); in the assay with SK-OV-3 it was 69.7 µM (inactive); in the assay with SN12C, 7.33 µM (inactive). For the same compound, the GI50 in the assay on SNB-75 is 15.8 µM (inactive); with SW-620 it was 91.2 µM (inactive); in the assay on UACC-257 it was 41.9 µM (inactive).

On to `O=C(O)CCCNS(=O)(=O)c1ccccc1`, for which the GI50 in the assay with 786-0, in the assay with ACHN, in the assay on CAKI-1, in the assay with HCC 2998, with HOP-92 and in the assay on OVCAR-8 was > 100 µM (inactive) throughout. The GI50 with RXF 393, with SF-268, in the assay on SK-MEL-2, in the assay with SK-OV-3, in the assay on SN12C and in the assay on SNB-75 was > 100 µM (inactive) in each case. The GI50 with SW-620 and in the assay on UACC-257 was > 100 µM (inactive) in each case.
